# Data as given in PMC10377541, “Further Characterization of Fungal Halogenase RadH and Its Homologs” (Biomolecules, 2023).
# Key:
# [1] = target: T1, RadH (Floropilus chiversii, UniProt C5H881); experiment: X-ray crystallography, […] Å; settings: FAD bound in the flavin-binding domain; chlorine atom in adjacent space; crystals pH 6.5
# T1 construct: codon-optimized synthetic gene in pET28, expressed in E. coli T7 Express, Ni-NTA purified; two monomers in the asymmetric unit
# [2] = target: T2, A0A066XG69 (Colletotrichum sublineola, UniProt A0A066XG69); experiment: HPLC-MS chlorination assay; assay type: biochemical; settings: FAD, Fre, NADH, MgCl2, Tris HCl pH 7.4, 18 h
# T2 construct: gene CSUB01_08252; heterologously expressed in E. coli; RadH homolog
# T2 sequence (A0A066XG69 1-512): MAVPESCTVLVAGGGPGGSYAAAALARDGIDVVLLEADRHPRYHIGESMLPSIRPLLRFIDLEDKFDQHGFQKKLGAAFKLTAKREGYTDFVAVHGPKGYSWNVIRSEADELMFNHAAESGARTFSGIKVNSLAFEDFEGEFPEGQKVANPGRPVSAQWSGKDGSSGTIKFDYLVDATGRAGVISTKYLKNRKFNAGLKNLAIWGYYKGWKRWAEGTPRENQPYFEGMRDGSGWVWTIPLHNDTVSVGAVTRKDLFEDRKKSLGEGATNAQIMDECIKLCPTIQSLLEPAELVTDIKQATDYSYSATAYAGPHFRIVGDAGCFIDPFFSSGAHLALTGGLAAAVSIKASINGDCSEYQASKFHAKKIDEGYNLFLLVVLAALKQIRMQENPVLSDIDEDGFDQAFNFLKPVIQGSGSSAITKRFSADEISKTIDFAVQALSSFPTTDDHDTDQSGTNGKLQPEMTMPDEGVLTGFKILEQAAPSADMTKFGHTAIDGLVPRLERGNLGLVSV
# [3] = target: T3, E3R0Q3 (Colletotrichum graminicola, UniProt E3R0Q3); experiment: HPLC-MS chlorination assay; assay type: biochemical; settings: FAD, Fre, NADH, MgCl2, Tris HCl pH 7.4, 18 h
# T3 construct: gene GLRG_11837; heterologously expressed in E. coli; RadH homolog
# T3 sequence (E3R0Q3 1-512): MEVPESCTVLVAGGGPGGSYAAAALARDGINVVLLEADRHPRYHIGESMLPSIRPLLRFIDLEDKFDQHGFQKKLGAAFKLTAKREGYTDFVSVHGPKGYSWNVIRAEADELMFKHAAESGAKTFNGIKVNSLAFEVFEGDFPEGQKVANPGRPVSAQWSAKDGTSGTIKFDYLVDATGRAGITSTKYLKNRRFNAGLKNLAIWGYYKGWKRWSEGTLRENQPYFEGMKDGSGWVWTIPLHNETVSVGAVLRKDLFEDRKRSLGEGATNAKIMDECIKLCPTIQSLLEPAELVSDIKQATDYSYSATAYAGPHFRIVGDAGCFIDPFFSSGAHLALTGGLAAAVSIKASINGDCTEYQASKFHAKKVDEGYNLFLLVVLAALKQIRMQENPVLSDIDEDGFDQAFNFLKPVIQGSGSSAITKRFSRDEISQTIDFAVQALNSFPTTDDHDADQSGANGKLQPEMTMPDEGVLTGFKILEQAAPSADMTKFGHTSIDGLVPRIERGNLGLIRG
# T1 sequence (C5H881 whole entry, the tested form may be a part): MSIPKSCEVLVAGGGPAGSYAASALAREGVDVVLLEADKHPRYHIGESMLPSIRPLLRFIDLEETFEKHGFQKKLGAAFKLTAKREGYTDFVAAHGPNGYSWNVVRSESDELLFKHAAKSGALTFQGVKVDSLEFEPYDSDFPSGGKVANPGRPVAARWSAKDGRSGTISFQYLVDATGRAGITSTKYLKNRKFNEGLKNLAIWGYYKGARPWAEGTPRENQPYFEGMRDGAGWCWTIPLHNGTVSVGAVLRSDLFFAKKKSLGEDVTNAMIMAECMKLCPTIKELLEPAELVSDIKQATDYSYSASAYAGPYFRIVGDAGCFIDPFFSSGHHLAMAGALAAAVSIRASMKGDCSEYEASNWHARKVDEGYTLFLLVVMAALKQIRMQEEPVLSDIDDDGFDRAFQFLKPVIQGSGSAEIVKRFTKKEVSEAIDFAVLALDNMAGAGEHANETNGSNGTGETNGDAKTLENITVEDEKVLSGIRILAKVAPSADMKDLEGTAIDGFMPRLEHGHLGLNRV
SMILES,"X-ray crystallography, 2.4 Å [1]",HPLC-MS chlorination assay [2],HPLC-MS chlorination assay [3]
Cc1cc2nc3c(=O)[nH]c(=O)nc-3n(C[C@H](O)[C@H](O)[C@H](O)COP(=O)(O)OP(=O)(O)OC[C@H]3O[C@@H](n4cnc5c(N)ncnc54)[C@H](O)[C@@H]3O)c2cc1C [FAD],Each monomer consists of a conserved Flavin-binding domain with FAD bound,–,–
Oc1ccc2cnccc2c1 [6-hydroxyisoquinoline],–,A0A066XG69 demonstrated higher conversion compared to RadH or E3R0Q3,"E3R0Q3 (Colletotrichum graminicola) and A0A066XG69 (Colletotrichum sublineola), showed activity with standard 6-hydroxyhisoquinoline substrates"
